Measured values as given in US4448962A, “Substituted quinoline carboxylic acid derivatives” (Kyorin Seiyaku Kabushiki Kaisha, priority 1978, dated 1984).
Values after ≈ are worked out from the molar mass of the structure shown. Where a name gives a salt, the structure may show the parent alone. Read-outs that look alike come from different tables or passages of the source.

Key:
Assay in all cases: Antibacterial spectrum (Minimum Inhibitory Concentration)
Format in all cases: cell-based
E. coli ATCC 10536 = conditions: Escherichia coli
Text: (§1) The antibacterial tests were done according to the method authorized by the Chemotherapeutic Society of Japan.

[1] = tested on: Escherichia coli NIHJ JC-2
Text: as §1

[2] = tested on: Klebsiella pneumoniae IFO 3512
Text: as §1

Pr. vulgaris XK Denken = conditions: Proteus vulgaris, read-out: Minimum Inhibitory Concentration
Text: as §1

[3] = tested on: Proteus vulgaris IFO 3167
Text: as §1

Ps. aeruginosa IFO 12689 = conditions: Pseudomonas aeruginosa
Text: as §1

[4] = tested on: Pseudomonas aeruginosa V-1
Text: as §1

[5] = tested on: Bacillus subtilis PCI 219
Text: as §1

[6] = tested on: Staphylococcus aureus 209P; conditions: read-out: Minimum Inhibitory Concentration
Text: as §1

Sta. aureus ATCC 14775 = conditions: Staphylococcus aureus
Text: as §1

[7] = ATCC10536, E. coli ATCC 10536, Gram -, read-out: Minimum Inhibitory Concentration
[8] = NIHJJC2, Escherichia coli NIHJ JC-2, Gram -, read-out: Minimum Inhibitory Concentration
[9] = IFO3512, Klebsiella pneumoniae IFO 3512, Gram -, read-out: Minimum Inhibitory Concentration
[10] = IFO3167, Proteus vulgaris IFO 3167, Gram -, read-out: Minimum Inhibitory Concentration
[11] = IFO12689, read-out: Minimum Inhibitory Concentration
[12] = V1, Pseudomonas aeruginosa V-1, Gram -, read-out: Minimum Inhibitory Concentration
[13] = PCI219, Bacillus subtilis PCI 219, Gram +, read-out: Minimum Inhibitory Concentration
[14] = Klebsiella pneumoniae, IFO3512, read-out: Minimum Inhibitory Concentration
[15] = IFO12689, Ps. aeruginosa IFO 12689, Gram -, read-out: Minimum Inhibitory Concentration
[16] = Staphylococcus aureus 209P, Gram +
[17] = Pseudomonas aeruginosa, V1, read-out: Minimum Inhibitory Concentration
[18] = Escherichia coli, NIHJJC2, read-out: Minimum Inhibitory Concentration
[19] = ATCC14775, Sta. aureus ATCC 14775, Gram +, read-out: Minimum Inhibitory Concentration
[20] = Bacillus subtilis, PCI219, read-out: Minimum Inhibitory Concentration
[21] = ATCC10536, read-out: Minimum Inhibitory Concentration
[22] = Proteus vulgaris, IFO3167, read-out: Minimum Inhibitory Concentration
[23] = ATCC14775, read-out: Minimum Inhibitory Concentration

SMILES | MIC (E. coli ATCC 10536; [7]) [µg/mL] | MIC [1, 8] [µg/mL] | MIC [2, 9] [µg/mL] | MIC (Pr. vulgaris XK Denken; Pr. vulgaris XK Denken, Gram -) [µg/mL] | MIC [3, 10] [µg/mL] | MIC (Ps. aeruginosa IFO 12689; [11]) [µg/mL] | MIC [4, 12] [µg/mL] | MIC [5, 13] [µg/mL] | MIC [2, 14] [µg/mL] | MIC (Ps. aeruginosa IFO 12689; [15]) [µg/mL] | MIC [6, 16] [µg/mL] | MIC [4, 17] [µg/mL] | MIC [1, 18] [µg/mL] | MIC (Sta. aureus ATCC 14775; [19]) [µg/mL] | MIC [5, 20] [µg/mL] | MIC (E. coli ATCC 10536; [21]) [µg/mL] | MIC (Pr. vulgaris XK Denken) [µg/mL] | MIC [3, 22] [µg/mL] | MIC (Sta. aureus ATCC 14775; [23]) [µg/mL] | MIC ([6]; Staphylococcus aureus, 209P) [µg/mL]
CCN1CCN(c2cc3c(cc2F)c(=O)c(C(=O)O)cn3CC)CC1 [Example 2, 1-ethyl-6-fluoro-7-(4-ethyl-1-piperazinyl)-4-oxo-1,4-dihydroquinoline-3-carboxylic acid] | 0.1 (≈ 0.288 µM) | 0.1 (≈ 0.288 µM) | < 0.025 | 0.2 (≈ 0.576 µM) | 0.2 (≈ 0.576 µM) | 6.25 (≈ 18 µM) | 3.13 (≈ 9.01 µM) | – | – | – | – | – | – | – | – | – | – | – | – | –
CCn1cc(C(=O)O)c(=O)c2cc(Cl)c(N3CCN(C)CC3)cc21 [Example 9, 1-ethyl-6-chloro-7-(4-methyl-1-piperazinyl)-4-oxo-1,4-dihydro-quinoline-3-carboxylic acid] | 0.78 (≈ 2.23 µM) | 1.56 (≈ 4.46 µM) | – | 0.78 (≈ 2.23 µM) | 0.78 (≈ 2.23 µM) | – | 25 (≈ 71.5 µM) | 0.78 (≈ 2.23 µM) | < 0.2 | 50 (≈ 143 µM) | 1.56 (≈ 4.46 µM) | – | – | – | – | – | – | – | – | –
CCN1CCN(c2cc3c(cc2Cl)c(=O)c(C(=O)O)cn3CC)CC1 [Example 10, 1-ethyl-6-chloro-7-(4-ethyl-1-piperazinyl)-4-oxo-1,4-dihydroquinoline-3-carboxylic acid] | 0.78 (≈ 2.14 µM) | 1.56 (≈ 4.29 µM) | < 0.2 | 1.56 (≈ 4.29 µM) | 1.56 (≈ 4.29 µM) | – | 50 (≈ 137 µM) | 0.78 (≈ 2.14 µM) | – | > 100 | 0.78 (≈ 2.14 µM) | – | – | – | – | – | – | – | – | –
CCn1cc(C(=O)O)c(=O)c2cc(Cl)c(N3CCN(Cc4ccccc4)CC3)cc21 [Example 11, 1-ethyl-6-chloro-7-(4-benzyl-1-piperazinyl)-4-oxo-1,4-dihydroquinoline-3-carboxylic acid] | 25 (≈ 58.7 µM) | 100 (≈ 235 µM) | 0.78 (≈ 1.83 µM) | 50 (≈ 117 µM) | 100 (≈ 235 µM) | – | – | 1.56 (≈ 3.66 µM) | – | > 100 | 3.13 (≈ 7.35 µM) | > 100 | – | – | – | – | – | – | – | –
CCn1cc(C(=O)O)c(=O)c2cc(Cl)c(N3CCN(C(=O)C(F)(F)F)CC3)cc21 [Example 12, 1-ethyl-6-chloro-7-(4-trifluoroacetyl-1-piperazinyl)-4-oxo-1,4-dihydroquinoline-3-carboxylic acid] | 0.78 (≈ 1.81 µM) | – | 0.78 (≈ 1.81 µM) | 0.78 (≈ 1.81 µM) | 0.78 (≈ 1.81 µM) | – | 25 (≈ 57.9 µM) | 0.78 (≈ 1.81 µM) | – | 50 (≈ 116 µM) | 1.56 (≈ 3.61 µM) | – | 3.13 (≈ 7.25 µM) | – | – | – | – | – | – | –
CCn1cc(C(=O)O)c(=O)c2cc(Cl)c(N3CCN(C4OC(=O)c5ccccc54)CC3)cc21 (stereo not drawn) [Example 15, 1-ethyl-6-chloro-7-(4-phthalidyl-1-piperazinyl)-4-oxo-1,4-dihydroquinoline-3-carboxylic acid] | 0.2 (≈ 0.427 µM) | 0.2 (≈ 0.427 µM) | 0.78 (≈ 1.67 µM) | 0.39 (≈ 0.833 µM) | 0.39 (≈ 0.833 µM) | – | 6.25 (≈ 13.4 µM) | 0.78 (≈ 1.67 µM) | – | 12.5 (≈ 26.7 µM) | 1.56 (≈ 3.33 µM) | – | – | – | – | – | – | – | – | –
CCn1cc(C(=O)O)c(=O)c2ccc(N3CCNCC3)c(F)c21 [Example 16, 1-ethyl-7-(1-piperazinyl)-8-fluoro-4-oxo-1,4-dihydroquinoline-3-carboxylicacid hydrochloric] | 0.78 (≈ 2.44 µM) | 0.78 (≈ 2.44 µM) | 0.2 (≈ 0.626 µM) | 1.56 (≈ 4.89 µM) | 0.78 (≈ 2.44 µM) | – | 1.56 (≈ 4.89 µM) | 3.13 (≈ 9.8 µM) | – | 12.5 (≈ 39.1 µM) | 12.5 (≈ 39.1 µM) | – | – | 25 (≈ 78.3 µM) | – | – | – | – | – | –
CCOC(=O)c1cn(CC)c2cc(N3CCNCC3)c(F)cc2c1=O [Example 17, 1-ethyl-6-fluoro-7-(1-piperazinyl)-4-oxo-1,4-dihydroquinoline-3-carboxylicacid ethyl ester] | 6.25 (≈ 18 µM) | 12.5 (≈ 36 µM) | 6.25 (≈ 18 µM) | 25 (≈ 72 µM) | 12.5 (≈ 36 µM) | – | 50 (≈ 144 µM) | 50 (≈ 144 µM) | – | > 100 | 50 (≈ 144 µM) | – | – | 100 (≈ 288 µM) | – | – | – | – | – | –
Cl.Cn1cc(C(=O)O)c(=O)c2cc(F)c(N3CCNCC3)cc21 [Example 18, 1-methyl-6-fluoro-7-(1-piperazinyl)-4-oxo-1,4-dihydroquinoline-3-carboxylic acid hydrochloride] | – | – | – | – | – | 3.13 | – | – | 0.39 | – | – | 1.56 | 0.39 | – | 0.78 | 0.39 | 1.56 | 0.39 | 12.5 | 6.25
CCCn1cc(C(=O)O)c(=O)c2cc(F)c(N3CCNCC3)cc21 [Example 19, 1-propyl-6-fluoro-7-(1-piperazinyl)-4-oxo-1,4-dihydroquinoline-3-carboxylic acid hydrochloride] | 0.39 | 0.2 | 0.2 | 0.39 | 0.2 | – | 3.13 | 0.39 | – | 12.5 | 1.56 | – | – | 3.13 | – | – | – | – | – | –
O=C(O)c1cn(Cc2ccccc2)c2cc(N3CCNCC3)c(F)cc2c1=O [Example 20, 1-benzyl-6-fluoro-1,4-dihydro-4-oxo-7-(1-piperazinyl)-quinoline-3-carboxylic acid] | 0.39 (≈ 1.02 µM) | 0.78 (≈ 2.05 µM) | 0.39 (≈ 1.02 µM) | 0.78 (≈ 2.05 µM) | 0.39 (≈ 1.02 µM) | 6.25 (≈ 16.4 µM) | 1.56 (≈ 4.09 µM) | 0.78 (≈ 2.05 µM) | – | – | 1.56 (≈ 4.09 µM) | – | – | 6.25 (≈ 16.4 µM) | – | – | – | – | – | –
C=CCn1cc(C(=O)O)c(=O)c2cc(F)c(N3CCNCC3)cc21 [Example 21, hydrochloride] | 0.2 | 0.2 | 0.2 | 0.39 | 0.2 | 6.25 | 1.56 | 0.78 | – | – | 3.13 | – | – | 6.25 | – | – | – | – | – | –
CCn1cc(C(=O)O)c(=O)c2cc(F)c(N3CCN(N=O)CC3)cc21 [Example 24, 1-ethyl-6-fluoro-7-(4-nitroso-1-piperazinyl)-4-oxo-1,4-dihydroquinoline-3-carboxylic acid] | 0.39 (≈ 1.12 µM) | 0.39 (≈ 1.12 µM) | 0.39 (≈ 1.12 µM) | 0.39 (≈ 1.12 µM) | 0.39 (≈ 1.12 µM) | – | 3.13 (≈ 8.99 µM) | 0.39 (≈ 1.12 µM) | – | 6.25 (≈ 17.9 µM) | 0.39 (≈ 1.12 µM) | – | – | 0.78 (≈ 2.24 µM) | – | – | – | – | – | –
Cl.O=C(O)c1cn(CCO)c2cc(N3CCNCC3)c(F)cc2c1=O [Example 25, 1-(2-hydroxyethyl)-6-fluoro-7-(1-piperazinyl)-4-oxo-1,4-dihydroquinoline-3-carboxylic acid hydrochloride] | – | – | – | – | – | > 25 | – | – | 0.05 | – | – | 3.13 | 0.39 | – | 1.56 | 0.2 | 3.13 | 0.2 | > 25 | 1.56
